Assays:
Cx43 hemichannels = biological target: T1, Cx43 hemichannels (Homo sapiens, UniProt P17302); experiment: Cx43 hemichannel activity assay (extracellular ATP release, bioluminescence); format: cell-based; conditions: HEK-hCx43 cells; for extracellular ATP levels at lower concentrations: CC10/2: 8.5 µM azithromycin, 7 µM chloroquine, 6.25 µM hydroxychloroquine; for extracellular ATP release (Cx43 hemichannel activity) compared to DF control: 30 min exposure in DF buffer; for extracellular ATP release at highest applied concentration: lopinavir 190 µM, remdesivir 500 µM (CC10 x10)
T1 construct: expressed in transfected cells; host or cells: HEK293 (HEK-hCx43, transduced)

Cx43 mRNA expression = experiment: RT-qPCR analysis of Cx43 mRNA expression; format: cell-based, human; conditions: DUBCA-hCx43 cells, 24 h; for Cx43 mRNA expression: CC10, CC10/2 and CC10/10 (all tested concentrations)
[1] = retrieved from the literature; cited from earlier work
DUBCA-hCx43 cells = experiment: MTT cell viability assay for CC10 determination, 24 h drug exposure; conditions: 24 h exposure; for CC10 (concentration inducing 10% cell death): extrapolated from concentration-response curves
[2] = test system: gap junctional communication; conditions: cited from earlier work
Cx43 protein expression = conditions: cited from earlier work

T1 sequence (P17302 whole entry): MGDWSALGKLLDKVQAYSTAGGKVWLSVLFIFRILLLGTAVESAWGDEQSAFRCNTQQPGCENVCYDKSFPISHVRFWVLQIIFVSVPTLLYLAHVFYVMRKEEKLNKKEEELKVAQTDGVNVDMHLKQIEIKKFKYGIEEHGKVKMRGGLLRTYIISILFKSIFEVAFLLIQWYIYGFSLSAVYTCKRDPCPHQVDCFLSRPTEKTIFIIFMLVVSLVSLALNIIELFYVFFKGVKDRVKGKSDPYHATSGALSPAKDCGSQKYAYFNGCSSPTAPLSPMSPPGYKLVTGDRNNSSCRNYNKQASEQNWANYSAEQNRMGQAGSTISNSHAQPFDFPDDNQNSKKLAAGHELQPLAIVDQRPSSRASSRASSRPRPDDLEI

SMILES | extracellular ATP levels at lower concentrations (Cx43 hemichannels; 30 min) | Cx43 mRNA expression (Cx43 mRNA expression) | Cmax (total peak plasma concentration at therapeutic dose) [1] | CC10 (concentration inducing 10% cell death) (DUBCA-hCx43 cells) | extracellular ATP release (Cx43 hemichannel activity) compared to DF control (Cx43 hemichannels) | gap junctional communication [2] | concentration dependence of ATP release (Cx43 hemichannels; 30 min, stepwise increase in ATP at lower concentrations) | cytotoxic effect on the cells (DUBCA-hCx43 cells) | Cx43 protein expression in cardiomyocytes (Cx43 protein expression) | extracellular ATP release at highest applied concentration (Cx43 hemichannels; 30 min) | Cx43 mRNA expression at 5 µM (Cx43 mRNA expression; effect only seen at 5 µM)
CC[C@H]1OC(=O)[C@H](C)[C@@H](O[C@H]2C[C@@](C)(OC)[C@@H](O)[C@H](C)O2)[C@H](C)[C@@H](O[C@@H]2O[C@H](C)C[C@H](N(C)C)[C@H]2O)[C@](C)(O)C[C@@H](C)CN(C)[C@H](C)[C@@H](O)[C@]1(C)O [Azithromycin (dihydrate), Azithromycin] | increase extracellular ATP levels | no effects | 0.52 [23] µM | 17 µM |  |  |  |  |  |  | 
CC1(C)[C@@H](OC(=O)CCC(=O)O)CC[C@]2(C)[C@H]3C(=O)C=C4[C@@H]5C[C@@](C)(C(=O)O)CC[C@]5(C)CC[C@@]4(C)[C@]3(C)CC[C@@H]12 [Cbx, carbenoxolone] |  |  |  |  | lower ATP levels |  |  |  |  |  | 
CCN(CC)CCCC(C)Nc1ccnc2cc(Cl)ccc12 (stereo not drawn) [Chloroquine (diphosphate), Chloroquine] | increase extracellular ATP levels | no effects | 0.81 [24] µM |  |  | did not had any effects |  |  |  |  | 
C[C@@H]1C[C@H]2[C@@H]3CCC4=CC(=O)C=C[C@]4(C)[C@@]3(F)[C@@H](O)C[C@]2(C)[C@@]1(O)C(=O)CO [Dexamethasone] |  | no effects | 0.63 [25] µM | >200 µM | not significantly different from the DF control | reduce gap junctional communication | might have a concentration-dependent effect on ATP release | did not show any cytotoxic effect |  |  | 
NC(=O)c1nc(F)c[nH]c1=O [Favipiravir] |  | no effects | 53.4 [26] µM | >400 µM | not significantly different from the DF control |  |  | did not show any cytotoxic effect |  |  | 
CCN(CCO)CCCC(C)Nc1ccnc2cc(Cl)ccc12 (stereo not drawn) [Hydroxychloroquine (sulphate), Hydroxychloroquine] | increase extracellular ATP levels | no effects |  | 12.5 µM |  |  |  |  | induced an elevation of Cx43 protein expression |  | 
Cc1cccc(C)c1OCC(=O)N[C@@H](Cc1ccccc1)[C@@H](O)C[C@H](Cc1ccccc1)NC(=O)[C@H](C(C)C)N1CCCNC1=O [Lopinavir] |  | no effects |  | 19 µM |  |  |  |  |  | released a significantly higher amount of ATP | 
CCC(CC)COC(=O)[C@H](C)N[P@](=O)(OC[C@H]1O[C@@](C#N)(c2ccc3c(N)ncnn23)[C@H](O)[C@@H]1O)Oc1ccccc1 [Remdesivir] |  |  | 9.03 [29] µM | 50 µM |  |  |  |  |  | released a significantly higher amount of ATP | decrease in Cx43 mRNA expression
NC(=O)c1ncn([C@@H]2O[C@H](CO)[C@@H](O)[C@H]2O)n1 [Ribavirin] |  | no effects |  | 10 µM | not significantly different from the DF control |  |  |  |  |  | 
CC(C)c1nc(CN(C)C(=O)N[C@H](C(=O)N[C@@H](Cc2ccccc2)C[C@H](O)[C@H](Cc2ccccc2)NC(=O)OCc2cncs2)C(C)C)cs1 [Ritonavir] |  | no effects | 1.17 [31] µM | 16 µM | not significantly different from the DF control |  |  |  |  |  | 

Source: publication PMC9103705, “Effects of Drugs Formerly Proposed for COVID-19 Treatment on Connexin43 Hemichannels” (International Journal of Molecular Sciences, 2022)
